Source: ChEMBL document CHEMBL1125000, “Phosphorus-containing inhibitors of HMG-CoA reductase. 1. 4-[(2-arylethyl)hydroxyphosphinyl]-3-hydroxy-butanoic acids: a new class of cell-selective inhibitors of cholesterol biosynthesis” (J Med Chem, 1990)

How the values were obtained:
[1] = biological target: T1, 3-hydroxy-3-methylglutaryl-coenzyme A reductase (Rattus norvegicus, UniProt P51639); assay: Inhibition of rat microsomal HMG-CoA reductase activity by 50%; conditions: read-out: I50
T1 sequence (P51639 whole entry): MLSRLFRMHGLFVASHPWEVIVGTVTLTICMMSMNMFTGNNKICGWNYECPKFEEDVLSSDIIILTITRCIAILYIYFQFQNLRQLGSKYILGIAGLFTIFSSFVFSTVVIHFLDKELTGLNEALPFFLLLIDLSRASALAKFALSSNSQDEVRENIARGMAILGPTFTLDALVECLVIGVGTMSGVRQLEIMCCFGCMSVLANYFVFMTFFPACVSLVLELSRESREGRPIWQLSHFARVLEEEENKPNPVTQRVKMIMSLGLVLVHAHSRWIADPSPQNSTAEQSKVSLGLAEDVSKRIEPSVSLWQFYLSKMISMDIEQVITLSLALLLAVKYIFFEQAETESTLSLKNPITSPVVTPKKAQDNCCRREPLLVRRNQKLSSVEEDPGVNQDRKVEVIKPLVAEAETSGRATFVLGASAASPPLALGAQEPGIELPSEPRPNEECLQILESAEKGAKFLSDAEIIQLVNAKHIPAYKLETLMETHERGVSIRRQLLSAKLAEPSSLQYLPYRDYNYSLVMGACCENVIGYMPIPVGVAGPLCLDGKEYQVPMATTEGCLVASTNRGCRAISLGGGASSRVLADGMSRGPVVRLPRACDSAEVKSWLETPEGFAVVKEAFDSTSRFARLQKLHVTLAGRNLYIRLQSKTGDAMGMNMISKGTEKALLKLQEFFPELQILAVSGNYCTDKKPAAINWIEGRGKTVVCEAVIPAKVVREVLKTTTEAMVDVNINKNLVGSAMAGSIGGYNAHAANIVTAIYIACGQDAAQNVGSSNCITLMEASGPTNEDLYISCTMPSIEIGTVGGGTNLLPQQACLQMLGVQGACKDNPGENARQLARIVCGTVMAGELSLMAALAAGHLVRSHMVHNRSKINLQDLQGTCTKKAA

Rattus norvegicus [2] = organism: Rattus norvegicus; assay: Compound was tested for 50% inhibition of cholesterol synthesis in isolated rat hepatocytes.; format: functional; conditions: Hepatocyte, read-out: I50
Homo sapiens = organism: Homo sapiens; assay: Compound was tested for 50% inhibition of cholesterol synthesis in human skin fibroblasts.; format: functional; conditions: read-out: I50
Rattus norvegicus [3] = assay: Inhibitory activity for de novo cholesterol synthesis from [14C]acetate was determined in rat after oral administration (in vivo); format: functional
Rattus norvegicus [4] = assay: Inhibitory activity for de novo cholesterol synthesis from [14C]acetate was determined in rat after intravenous administration (in vivo); format: functional

CCc1c(CCP(=O)(O)C[C@@H](O)CC(=O)O)n(-c2ccc(F)cc2)c2ccccc12
IC50 [1]: 0.013 µM

Cc1cc(C)c(CCP(=O)(O)C[C@@H](O)CC(=O)O)c(-c2ccc(F)c(C)c2)c1
IC50 (Rattus norvegicus [2]): 0.085 µM | IC50 [1]: 0.015 µM | IC50 (Homo sapiens): 64 µM | ED50 (Rattus norvegicus [3]): 6.7 mg/kg | ED50 (Rattus norvegicus [4]): 0.05 mg/kg

Cc1cc(-c2ccc(F)c(C)c2)c(CCP(=O)(O)C[C@@H](O)CC(=O)O)c(C(C)C)c1
IC50 [1]: 0.0038 µM

CC(C)n1c(/C=C/P(=O)(O)C[C@@H](O)CC(=O)O)c(-c2ccc(F)cc2)c2ccccc21
IC50 [1]: 0.026 µM

CC(C)n1c(CCP(=O)(O)C[C@@H](O)CC(=O)O)c(-c2ccc(F)cc2)c2ccccc21
IC50 [1]: 0.024 µM

O=C(O)C[C@H](O)CP(=O)(O)C#CC1=C(c2ccc(F)cc2)c2ccccc2C12CC2
IC50 [1]: 0.07 µM

CC[C@H](C)C(=O)O[C@H]1C[C@@H](C)C=C2C=C[C@H](C)[C@H](CC[C@@H](O)C[C@@H](O)CC(=O)[O-])[C@H]21.[Na+]
IC50 (Rattus norvegicus [2]): 0.146 µM | IC50 (Homo sapiens): 0.019 µM | ED50 (Rattus norvegicus [3]): 0.4 mg/kg | ED50 (Rattus norvegicus [4]): 0.033 mg/kg

Cc1cc(C)c(/C=C\P(=O)(O)C[C@@H](O)CC(=O)O)c(-c2ccc(F)c(C)c2)c1
IC50 [1]: 3 µM

O=C(O)C[C@H](O)CP(=O)(O)C#CC1=C(c2ccc(F)cc2)c2ccccc2C12CCCCC2
IC50 [1]: 0.003 µM

Cc1cc(C)c(COP(=O)(O)C[C@@H](O)CC(=O)O)c(-c2ccc(F)c(C)c2)c1
IC50 (Rattus norvegicus [2]): 0.26 µM | IC50 [1]: 0.162 µM | IC50 (Homo sapiens): 327 µM | ED50 (Rattus norvegicus [3]): > 10 mg/kg | ED50 (Rattus norvegicus [4]): 0.14 mg/kg

CC(C)c1c(CCP(=O)(O)C[C@@H](O)CC(=O)O)n(-c2ccc(F)cc2)c2ccccc12
IC50 [1]: 0.12 µM

Cc1cc(-c2ccc(F)c(C)c2)c(COP(=O)(O)C[C@@H](O)CC(=O)O)c(C(C)C)c1
IC50 [1]: 0.0012 µM

COP(=O)(C[C@@H](O)CC(=O)O)NCc1c(C)cc(C)cc1-c1ccc(F)c(C)c1 (stereo partly specified)
IC50 [1]: 70.5 µM

Cc1cc(C)c(/C=C/P(=O)(O)C[C@@H](O)CC(=O)O)c(-c2ccc(F)c(C)c2)c1
IC50 [1]: 0.0067 µM

Cc1cc(C)c(CP(=O)(O)C[C@@H](O)CC(=O)O)c(-c2ccc(F)c(C)c2)c1
IC50 [1]: 89.3 µM

COP(=O)(CCc1c(C)cc(C)cc1-c1ccc(F)c(C)c1)C[C@@H](O)CC(=O)O (stereo partly specified)
IC50 [1]: 4.6 µM

Cc1cc(C)c(OCP(=O)(O)C[C@@H](O)CC(=O)O)c(-c2ccc(F)c(C)c2)c1
IC50 [1]: 4.5 µM

CC[C@H](C)C(=O)O[C@H]1C[C@H](O)C=C2C=C[C@H](C)[C@H](CC[C@@H](O)C[C@@H](O)CC(=O)[O-])[C@H]21.[Na+] [PRAVASTATIN SODIUM]
IC50 (Rattus norvegicus [2]): 0.1 µM | IC50 [1]: 0.026 µM | IC50 (Homo sapiens): 3.1 µM | ED50 (Rattus norvegicus [3]): 0.75 mg/kg | ED50 (Rattus norvegicus [4]): 0.053 mg/kg

O=C(O)C[C@H](O)CP(=O)(O)/C=C/C1=C(c2ccc(F)cc2)c2ccccc2C12CCCC2
IC50 [1]: 0.0021 µM

O=C(O)C[C@H](O)CP(=O)(O)C#CC1=C(c2ccc(F)cc2)c2ccccc2C12CCCC2
IC50 (Rattus norvegicus [2]): 0.245 µM | IC50 [1]: 0.0028 µM | IC50 (Homo sapiens): 11 µM | ED50 (Rattus norvegicus [3]): 0.38 mg/kg | ED50 (Rattus norvegicus [4]): 0.027 mg/kg

CCc1c(C#CP(=O)(O)C[C@@H](O)CC(=O)O)n(-c2ccc(F)cc2)c2ccccc12
IC50 [1]: 0.0875 µM

CC(C)c1c(C#CP(=O)(O)C[C@@H](O)CC(=O)O)n(-c2ccc(F)cc2)c2ccccc12
IC50 (Rattus norvegicus [2]): 0.093 µM | IC50 [1]: 0.0022 µM | IC50 (Homo sapiens): 8.9 µM | ED50 (Rattus norvegicus [3]): 1.1 mg/kg | ED50 (Rattus norvegicus [4]): 0.09 mg/kg

Cc1cc(-c2ccc(F)c(C)c2)c(C#CP(=O)(O)C[C@@H](O)CC(=O)O)c(C(C)C)c1
IC50 [1]: 0.0085 µM

Cc1cc(C)c(CCCP(=O)(O)C[C@@H](O)CC(=O)O)c(-c2ccc(F)c(C)c2)c1
IC50 [1]: 150 µM

Cc1cc(C)c(C#CP(=O)(O)C[C@@H](O)CC(=O)O)c(-c2ccc(F)c(C)c2)c1
IC50 [1]: 0.297 µM

CC(C)n1c(C#CP(=O)(O)C[C@@H](O)CC(=O)O)c(-c2ccc(F)cc2)c2ccccc21
IC50 [1]: 0.006 µM

CC(C)c1c(/C=C/P(=O)(O)C[C@@H](O)CC(=O)O)n(-c2ccc(F)cc2)c2ccccc12
IC50 [1]: 0.0019 µM

COP(=O)(C[C@@H](O)CC(=O)O)OCc1c(C)cc(C)cc1-c1ccc(F)c(C)c1 (stereo partly specified)
IC50 [1]: 21.6 µM
